Test results published in US20230293560A1, “METHOD FOR MODULATING THE BLADDER MICROBIOME TO IMPROVE BLADDER HEALTH” (Kimberly-Clark Worldwide, Inc., priority 2020, published 2023).

Experiments:
E. faecalis = test: Plate assay screening of prebiotics; assay type: cell-based, Enterococcus faecalis; parameters: key: ++: if growth and fermentation was equal to or greater than the positive control; +: if growth and fermentation was less than the positive control; +: if weak or no growth or fermentation; +^2: Bacteria demonstrated growth but no fermentation on the prebiotic; conditions: E. faecalis KC16-7171-3, Bladder; MRS-based agar with glucose substituted by prebiotic
Method: (§1) Most of the prebiotic compounds were initially tested in a high throughput assay screening process, described further in the Test Methods section herein, but three prebiotics (as noted in Table 3) were tested using a plate assay screening process as described in the Test Methods section herein. The prebiotics were tested against the commensal bacterial species of Lactobacillus crispatus, Lactobacillus gasseri, and Lactobacillus jensenii and against the pathogenic bacterial species of Streptococcus anginosus and Enterococcus faecalis as shown in Table 2. The bacterial species were taken from different sources, listed as culture collection, bladder, and vagina. […]
(§2) • 1. […] Bacteria were enumerated on each agar and color changes were recorded. […] Small colonies are counted as S. anginosus and large colonies are counted as L. crispatus. • 10. […]

L. crispatus = test: Plate assay screening of prebiotics; assay type: cell-based, Lactobacillus crispatus; parameters: key: ++: if growth and fermentation was equal to or greater than the positive control; +: if growth and fermentation was less than the positive control; +: if weak or no growth or fermentation; +^2: Bacteria demonstrated growth but no fermentation on the prebiotic; conditions: MRS-based agar with glucose substituted by prebiotic
Method: as §1, §2

S. anginosus = test: Plate assay screening of prebiotics; assay type: cell-based, Streptococcus anginosus; parameters: key: ++: if growth and fermentation was equal to or greater than the positive control; +: if growth and fermentation was less than the positive control; +: if weak or no growth or fermentation; +^2: Bacteria demonstrated growth but no fermentation on the prebiotic; conditions: S. anginosus KC18-1131-3B, Bladder; MRS-based agar with glucose substituted by prebiotic
Method: as §1, §2

L. jensenii = test: Plate assay screening of prebiotics; assay type: cell-based, Lactobacillus jensenii; parameters: key: ++: if growth and fermentation was equal to or greater than the positive control; +: if growth and fermentation was less than the positive control; +: if weak or no growth or fermentation; +^2: Bacteria demonstrated growth but no fermentation on the prebiotic; conditions: L. jensenii KC17-4297-18, Bladder; MRS-based agar with glucose substituted by prebiotic
Method: as §1, §2

E. coli = test: Additional prebiotic screening against E. coli (plate assay); assay type: cell-based, Escherichia coli
Description: Additional screening of three prebiotic compounds of alpha-methyl-D-glucoside, isomaltulose, and alpha cyclodextrin was completed against pathogenic bacteria species Escherichia coli from both bladder and vaginal sources, as shown in Table 4. The growth of the bacterial species for this additional screening process against E. coli was not compared to growth of a control as in the screening process documented in Table 3, but was documented based on growth or no growth for the number of samples tested.
• 1. An in house bacterial agar was created based on MRS agar (Kaplan and Hutkins, 2000) where the glucose is substituted for the prebiotic to be tested (either dextran MW ˜6,000, alpha-cyclodextrin, glucomannan, or pectin), bromocresol purple was included as a pH indicator. • 2. Bacteria were enumerated on each agar and color changes were recorded. Method for Competition Assay (Modified from “In Vitro Evaluation of Nutrients that Selectively Confer a Competitive Advantage to Lactobacilli” Vongsa et al, Beneficial Microbes 2016) • 1. Create 2% w/v stock of prebiotic or positive control (glucose/dextrose) as described above. • 2. From a freezer stock subculture the bacteria twice into De Man, Rogosa and Sharpe (MRS) broth (BD Difco, Becton Dickinson, Franklin Lakes, NJ), 37° C., stationary, anaerobic, overnight. • 3. From the last subculture, plate onto an MRS agar plate for L. crispatus KC18-1173-1 or blood agar for S. anginosus KC18-1131-3B, grow 37° C., stationary, anaerobic, overnight. • 4. Create a bacterial suspension by using a sterile tipped swab to transfer colonies of bacteria into a PBS suspension blank to a 2 MacFarland for both species. • 5. Enumerate the starting culture. • 6. Add 9.8 mL of prebiotic media into a 15 mL conical tube. • 7. Add 100 μL of the diluted bacteria to the media, incubate at 37° C., anaerobic, 48 hours. • 8. Harvest 100 μL from the tube containing the prebiotic and plate onto MRS agar and tryptic soy agar (TSA). • 9. […] Small colonies are counted as S. anginosus and large colonies are counted as L. crispatus. • 10. […]

[1] = test system: commensal and pathogenic bacterial species; test: Prebiotic screening, summary in words across species; assay type: cell-based; conditions: commensal (L. crispatus, L. gasseri, L. jensenii) and pathogenic (S. anginosus, E. faecalis) species
Procedure, shortened: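 Prebiotics at 2% w/v stock in API 50 CHL medium with bromocresol purple, inoculated with bacteria and read every 20 min for 24-48 h at OD430/590 (fermentation) and OD660 (growth), scored against a glucose control. Some tested on MRS-based agar with the prebiotic in place of glucose; competition assay with L. crispatus and S. anginosus incubated 48 h anaerobically at 37 °C, then enumerated on MRS and TSA.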

[2] = E. coli KC17-3970-4, Vagina, of 1 tested

Question: How did the “growth and fermentation vs positive control, Ef-2 (plate assay)” value (E. faecalis) turn out when `OC[C@H]1O[C@@H]2O[C@H]3[C@H](O)[C@@H](O)[C@@H](O[C@H]4[C@H](O)[C@@H](O)[C@@H](O[C@H]5[C@H](O)[C@@H](O)[C@@H](O[C@H]6[C@H](O)[C@@H](O)[C@@H](O[C@H]7[C@H](O)[C@@H](O)[C@@H](O[C@H]1[C@H](O)[C@H]2O)O[C@@H]7CO)O[C@@H]6CO)O[C@@H]5CO)O[C@@H]4CO)O[C@@H]3CO` [Alpha Cyclodextrin, Alpha-Cyclodextrin] was run?
Answer: +

Question: And the “growth and fermentation vs positive control, Lc-2 (plate assay)” value (L. crispatus; L. crispatus KC16-7134-3C, Bladder)?
Answer: +

Question: What about the “growth and fermentation vs positive control, Lc-3 (plate assay)” value (L. crispatus; L. crispatus KC18-1173-1, Bladder) of the same compound?
Answer: +^2

Question: What about the “growth and fermentation vs positive control, Sa-2 (plate assay)” value (S. anginosus) of the same compound?
Answer: +

Question: And the “growth and fermentation vs positive control, Lj-1 (plate assay)” value (L. jensenii)?
Answer: +

Question: What about the “# fermented, Ec-3 (plate assay)” value (E. coli; [2]) of the same compound?
Answer: 0

Question: And the “# grew, Ec-3 (plate assay)” value (E. coli; [2])?
Answer: 1

Question: And the “growth of E. coli Ec-3, in words” value (E. coli; the one E. coli species tested (Ec-3), vaginal source)?
Answer: did grow

Question: And the “overall outcome of the screening of Table 3, in words” value [1]?
Answer: growing at least some of the commensal bacterial species and either having less growth than the positive control or almost no growth of the pathogenic bacterial species
